Assay [1] concerns histamine stimulated bullfrog gastric mucosa. Briefly: H+ secretion by histamine-stimulated bullfrog gastric mucosa (chambered mucosa, titration). Particulars: for activity at 500 µM: Aquarana catesbeiana, 0.5 mM drug in the secretory solution, histamine stimulated steady-state H+ secretory rate, mean ±SEM, read-out: Rate of H^+ transport (% of control); for reversibility of the inhibition of H^+ transport by elevation of secretory K^+: K+ substituted for Na+ of the secretory solution; for inhibitory effect relative to the other polyamine: spermine versus spermidine. Set-up: species or system bullfrogs (Rana catesbeiana). The procedure:
This experiment was carried out with gastric mucosa from bullfrogs (Rana catesbeiana). […] The area of the mounted mucosae was 1.5 cm^2. The bathing solutions were bubbled continuously with […] -5% CO2.
The normal nutrient soliution had the following composition (in mM): NaCl 87, KCl 4, CaCl2 2, MgCl2 1, KH2 PO4 1, NaHCO3 18, and glucose 11.
All experiments were conducted under open-circuit conditions at room temperature. The mucosal solutions were collected at 15-minute intervals and placed in thoroughly washed plastic vials. The K^+ content of the secretory medium was determined by atomic absorption spectrophotometer (model 360 Perkin-Elmer). The H^+ secretion was quantitated by titration using 1 mM NaOH to pH 6.5 while gassing with 100% N2.
The H^+ secretory rates are the steady-stage values before (None) and after addition of the drugs attained by the histamine stimulated mucosa. Values are mean ±SEM.

Assay [2] has as its system gastric (H^+ +K^+)-ATPase. As to conditions: vesicles preequilibrated in 150 mM KCl with 0.5 mM compound for 48 hours.
Procedure: The gastric microsomal membranes were harvested. All procedures were carried out at 0°-4° C. Briefly, the fundic mucosa from the pig was desquamated and scraped to collect the oxyntic cell-enriched fractions. The mucosal scraping was homogenized gently in a medium consisting of 250 mM sucrose, 0.2 mM EDTA, and 0.2 mM Pipes buffer (pH 6.8) using a loose pestle homogenizer. The homogenate was centrifuged at 8000 g for 5 min. The process was repeated three times. All the supernatants were pooled together and layered over 40 ml of 37% sucrose in 84-ml capacity screw cap tubes and centrifuged at 100,000 g for 5 hours. The microsomal membrane bands appeared at the interface of soluble supernatant and 37% sucrose. The microsomal vesicle bands were collected, diluted with homogenizing medium, and centrifuged at 100,000 g for 90 min. The pellet was suspended in the homogenizing medium with a protein concentration of 0.5 mg/ml. The collected cellular vesicules were inverted, i.e., the interior of the vesicules originally faced the lumen side of the stomach. Vesicular accumulation of H^+ was measured at room temperature. The method uses the change in fluorescence intensity (quenching) of 9-amino-acridine or acridine orange which is proportional to the amount of dye taken up by the microsomes. The amount of dye taken up is a sensitive measure of intravesicular H^+ concentration. […]

The structures appear in SMILES notation.

As to `NCCCCN` [Putrescine, putrescine, reference compound], the activity at 500 µM in assay [1] was 95 ± 10%.
Turning to `NCCCCNCCCN` [Spermidine, spermidine], in assay [1], the activity at 500 µM came to 55 ± 2%, the “reversibility of the inhibition of H^+ transport by elevation of secretory K^+” value is listed as “could also be reversed” and the “inhibitory effect relative to the other polyamine” value is recorded as “much lower than spermine”. In addition, in assay [1] (nutrient solution, concentration not given), the “inhibition of gastric H^+ transport, added into the nutrient solution” value is given as “not into the nutrient solution”. Also, the “inhibition of gastric H^+ transport, added into the secretory solution” value in assay [1] (secretory solution, concentration not given) was “inhibits gastric H^+ transport”.
`NCCCNCCCCNCCCN` [Spermine, spermine]: the “inhibition of H^+ transport, added into the secretory solution” value in assay [1] (0.25 mM in secretory solution (lumen side), inhibition increased with concentration) is given as “remarkable inhibition of H^+ transport”. Moreover, in assay [1] (1 mM together with 10 mM K+ in the secretory solution, within 30 min), the “rate of H^+ transport in K+-depleted mucosa” value was “near zero”. In addition, the “reversibility of inhibition by elevation of secretory K^+ in K+-depleted mucosa” value in assay [1] (1 mM with 10 mM K+ in secretory solution, then K+ elevated) was “could be reversed”. The “effect on H^+ transport, added to nutrient solution” value in assay [1] (0.5 and 1.0 mM, from the nutrient side) was “did not have any appreciable effect”. Also, in assay [1], the activity at 500 µM was found to be 28 ± 6%, the “reversibility of the inhibition of H^+ transport by elevation of secretory K^+” value was “completely reversible” and the “inhibitory effect relative to the other polyamine” value is listed as “more potent than spermidine”. Further, the “H^+ uptake by the vesicles” value in assay [2] is “totally obliterated”.
